Test results from ChEMBL document CHEMBL1201862, “PubChem BioAssay data set” (2004).
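Results reflect a 48-hour exposure of cells in 96-well plates to compound at five concentrations. GI50: concentration for 50% inhibition of growth.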 Calls of active or inactive are those of the source. Rule as the data show it: active = GI50 up to about 1.1 µM and inactive = higher.

Experiments:
Assay in all cases: growth of human tumour cells (NCI), 48 h
HCT-15 = system: HCT-15
RXF 393 = system: RXF 393
K562 = system: K562
SF-268 = system: SF-268
ACHN = system: ACHN
Hs-578T = system: Hs-578T
NCI/ADR-RES = system: NCI/ADR-RES
COLO 205 = system: COLO 205
KM12 = system: KM12
HOP-62 = system: HOP-62
PC-3 = system: PC-3
MCF7 = system: MCF7
CCRF-CEM = system: CCRF-CEM
UACC-257 = system: UACC-257
UO-31 = system: UO-31
SF-295 = system: SF-295
IGROV-1 = system: IGROV-1
MOLT-4 = system: MOLT-4
T47D = system: T47D
OVCAR-8 = system: OVCAR-8
SNB-75 = system: SNB-75
SNB-19 = system: SNB-19
DU-145 = system: DU-145
U-251 = system: U-251
CAKI-1 = system: CAKI-1
RPMI-8226 = system: RPMI-8226
OVCAR-3 = system: OVCAR-3
OVCAR-5 = system: OVCAR-5
HL-60 = system: HL-60
M14 = system: M14
BT-549 = system: BT-549
EKVX = system: EKVX
SK-MEL-28 = system: SK-MEL-28
NCI-H460 = system: NCI-H460
SK-MEL-5 = system: SK-MEL-5
LOX IMVI = system: LOX IMVI
MDA-MB-435 = system: MDA-MB-435
HT-29 = system: HT-29
786-0 = system: 786-0
MDA-N = system: MDA-N
UACC-62 = system: UACC-62
SN12C = system: SN12C
SR = system: SR
NCI-H226 = system: NCI-H226
TK-10 = system: TK-10
NCI-H522 = system: NCI-H522
A549 = system: A549
SK-OV-3 = system: SK-OV-3
SW-620 = system: SW-620
HCT-116 = system: HCT-116
HOP-92 = system: HOP-92
SK-MEL-2 = system: SK-MEL-2
SF-539 = system: SF-539
MDA-MB-231 = system: MDA-MB-231
Malme-3M = system: Malme-3M
NCI-H23 = system: NCI-H23

For `CC1(C)CC(=O)c2c(nc3c(ccc4ccccc43)c2-c2ccc(NC(=O)CCC(=O)Nc3ccc(-c4c5c(nc6c4ccc4ccccc46)CC(C)(C)CC5=O)cc3)cc2)C1`, the GI50 (HCT-15) was greater than 100 µM, the GI50 (RXF 393) was > 100 µM (inactive) and the GI50 (K562) was > 100 µM (inactive). The GI50 (SF-268) was > 100 µM (inactive), the GI50 (ACHN) was > 100 µM (inactive) and the GI50 (Hs-578T) was > 100 µM (inactive). The GI50 (NCI/ADR-RES) was > 100 µM (inactive), the GI50 (COLO 205) was > 100 µM (inactive) and the GI50 (KM12) was > 100 µM (inactive). For the same molecule, the GI50 (HOP-62) was > 100 µM (inactive), the GI50 (PC-3) was > 100 µM (inactive) and the GI50 (MCF7) was > 100 µM (inactive). The GI50 (CCRF-CEM) was > 100 µM (inactive), the GI50 (UACC-257) was > 100 µM (inactive) and the GI50 (UO-31) was > 100 µM (inactive). The GI50 (SF-295) was > 100 µM (inactive), the GI50 (IGROV-1) was > 100 µM (inactive) and the GI50 (MOLT-4) was > 100 µM (inactive). For the same molecule, the GI50 (T47D) was > 100 µM (inactive), the GI50 (OVCAR-8) was > 100 µM (inactive) and the GI50 (SNB-75) was 25 µM (inactive). The GI50 (SNB-19) was > 100 µM (inactive), the GI50 (DU-145) was > 100 µM (inactive) and the GI50 (U-251) was > 100 µM (inactive). For the same molecule, the GI50 (CAKI-1) was > 100 µM (inactive), the GI50 (RPMI-8226) was > 100 µM (inactive) and the GI50 (OVCAR-3) was > 100 µM (inactive). The GI50 (OVCAR-5) was > 100 µM (inactive), the GI50 (HL-60) was > 100 µM (inactive) and the GI50 (M14) was > 100 µM (inactive). The GI50 (BT-549) was > 100 µM (inactive), the GI50 (EKVX) was 95.3 µM (inactive) and the GI50 (SK-MEL-28) was > 100 µM (inactive). For the same molecule, the GI50 (NCI-H460) was > 100 µM (inactive), the GI50 (SK-MEL-5) was > 100 µM (inactive) and the GI50 (LOX IMVI) was > 100 µM (inactive). The GI50 (MDA-MB-435) was > 100 µM (inactive), the GI50 (HT-29) was > 100 µM (inactive) and the GI50 (786-0) was > 100 µM (inactive). The GI50 (MDA-N) was > 100 µM (inactive), the GI50 (UACC-62) was > 100 µM (inactive) and the GI50 (SN12C) was > 100 µM (inactive). The GI50 (SR) was > 100 µM (inactive), the GI50 (NCI-H226) was > 100 µM (inactive) and the GI50 (TK-10) was > 100 µM (inactive). The GI50 (NCI-H522) was > 100 µM (inactive), the GI50 (A549) was > 100 µM (inactive) and the GI50 (SK-OV-3) was > 100 µM (inactive). For the same molecule, the GI50 (SW-620) was > 100 µM (inactive), the GI50 (HCT-116) was > 100 µM (inactive) and the GI50 (HOP-92) was > 100 µM (inactive). The GI50 (SK-MEL-2) was > 100 µM (inactive), the GI50 (SF-539) was > 100 µM (inactive) and the GI50 (MDA-MB-231) was > 100 µM (inactive).
With `Cc1cc2cc3c(cc2c(-c2ccc(N)cc2)n1)OCO3` the GI50 (HCT-15) was 53 µM, the GI50 (K562) was 23.1 µM (inactive) and the GI50 (SF-268) was 22.3 µM (inactive). For the same molecule, the GI50 (ACHN) was 39.5 µM (inactive), the GI50 (Hs-578T) was 51.3 µM (inactive) and the GI50 (NCI/ADR-RES) was 72.9 µM (inactive). For the same molecule, the GI50 (Malme-3M) was 86.9 µM (inactive), the GI50 (COLO 205) was 26.8 µM (inactive) and the GI50 (KM12) was 38.9 µM (inactive). The GI50 (HOP-62) was 57.1 µM (inactive), the GI50 (PC-3) was 40.7 µM (inactive) and the GI50 (MCF7) was 7.74 µM (inactive). For the same molecule, the GI50 (CCRF-CEM) was 28.5 µM (inactive), the GI50 (UACC-257) was > 100 µM (inactive) and the GI50 (UO-31) was 29.2 µM (inactive). For the same molecule, the GI50 (SF-295) was 34.2 µM (inactive), the GI50 (IGROV-1) was 14.5 µM (inactive) and the GI50 (MOLT-4) was 13.8 µM (inactive). The GI50 (T47D) was 29.6 µM (inactive), the GI50 (OVCAR-8) was 81.7 µM (inactive) and the GI50 (SNB-19) was > 100 µM (inactive). For the same molecule, the GI50 (DU-145) was 49.9 µM (inactive), the GI50 (U-251) was 62.5 µM (inactive) and the GI50 (CAKI-1) was 26.5 µM (inactive). For the same molecule, the GI50 (RPMI-8226) was 23.8 µM (inactive), the GI50 (OVCAR-3) was 22.4 µM (inactive) and the GI50 (OVCAR-5) was 36.6 µM (inactive). For the same molecule, the GI50 (HL-60) was 12 µM (inactive), the GI50 (M14) was 81.8 µM (inactive) and the GI50 (BT-549) was > 100 µM (inactive). The GI50 (EKVX) was 35.4 µM (inactive), the GI50 (NCI-H460) was 21.3 µM (inactive) and the GI50 (SK-MEL-5) was 24.2 µM (inactive). The GI50 (MDA-MB-435) was 76.6 µM (inactive), the GI50 (HT-29) was 22.2 µM (inactive) and the GI50 (786-0) was 25.6 µM (inactive). The GI50 (MDA-N) was 23.3 µM (inactive), the GI50 (UACC-62) was 30.8 µM (inactive) and the GI50 (SN12C) was 39.4 µM (inactive). The GI50 (SR) was 15.6 µM (inactive), the GI50 (NCI-H23) was 61.2 µM (inactive) and the GI50 (TK-10) was 39.9 µM (inactive). The GI50 (NCI-H522) was 42.5 µM (inactive), the GI50 (A549) was 74.1 µM (inactive) and the GI50 (SK-OV-3) was > 100 µM (inactive). For the same molecule, the GI50 (SW-620) was 31.6 µM (inactive), the GI50 (HCT-116) was 31.6 µM (inactive) and the GI50 (HOP-92) was 13.9 µM (inactive). For the same molecule, the GI50 (SK-MEL-2) was 82.8 µM (inactive), the GI50 (SF-539) was > 100 µM (inactive) and the GI50 (MDA-MB-231) was 13.7 µM (inactive).
